Laboratory results: ChEMBL document CHEMBL1201862, “PubChem BioAssay data set” (2004)
Calls of active or inactive are those of the source.

Experiments:
Streptokinase A = biological target: T1, Streptokinase A (Streptococcus pyogenes serotype M1, UniProt P10520); assay: viability-normalized secreted streptokinase activity reduction – plasminogen activation absorbance, OD405, dose response (AID 1914); format: functional, Streptococcus pyogenes M1 GAS;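 also: secreted streptokinase activity via plasminogen activation per viability signal from cell pellet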
T1 sequence (P10520 whole entry): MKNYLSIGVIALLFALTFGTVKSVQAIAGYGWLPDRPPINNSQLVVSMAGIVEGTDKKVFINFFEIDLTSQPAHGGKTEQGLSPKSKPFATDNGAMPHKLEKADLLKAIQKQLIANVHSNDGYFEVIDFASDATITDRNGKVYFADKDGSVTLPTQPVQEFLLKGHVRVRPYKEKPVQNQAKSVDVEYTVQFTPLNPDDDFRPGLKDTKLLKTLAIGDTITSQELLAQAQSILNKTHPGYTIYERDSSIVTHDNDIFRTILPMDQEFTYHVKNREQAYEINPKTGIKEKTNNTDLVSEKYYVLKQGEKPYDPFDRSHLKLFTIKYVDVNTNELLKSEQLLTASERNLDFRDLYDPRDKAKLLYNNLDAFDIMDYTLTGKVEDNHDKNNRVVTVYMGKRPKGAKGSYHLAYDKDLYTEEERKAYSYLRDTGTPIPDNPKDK

[1] = biological target: DNA dC->dU-editing enzyme APOBEC-3G (Homo sapiens, UniProt Q9HC16); assay: Dose Response confirmation of small molecule APOBEC3G DNA Deaminase Inhibitors via a fluorescence-based single-stranded DNA deaminase assay. [Related pubchem assays (depositor defined):AID493012, AID493028]; format: functional
[2] = biological target: T2, High affinity choline transporter 1 (Homo sapiens, UniProt Q9GZV3); assay: human choline transporter blockers, potency – cell-based, 5-point CRC, membrane potential dye, dose response (AID 504840); format: functional
T2 sequence (Q9GZV3 whole entry): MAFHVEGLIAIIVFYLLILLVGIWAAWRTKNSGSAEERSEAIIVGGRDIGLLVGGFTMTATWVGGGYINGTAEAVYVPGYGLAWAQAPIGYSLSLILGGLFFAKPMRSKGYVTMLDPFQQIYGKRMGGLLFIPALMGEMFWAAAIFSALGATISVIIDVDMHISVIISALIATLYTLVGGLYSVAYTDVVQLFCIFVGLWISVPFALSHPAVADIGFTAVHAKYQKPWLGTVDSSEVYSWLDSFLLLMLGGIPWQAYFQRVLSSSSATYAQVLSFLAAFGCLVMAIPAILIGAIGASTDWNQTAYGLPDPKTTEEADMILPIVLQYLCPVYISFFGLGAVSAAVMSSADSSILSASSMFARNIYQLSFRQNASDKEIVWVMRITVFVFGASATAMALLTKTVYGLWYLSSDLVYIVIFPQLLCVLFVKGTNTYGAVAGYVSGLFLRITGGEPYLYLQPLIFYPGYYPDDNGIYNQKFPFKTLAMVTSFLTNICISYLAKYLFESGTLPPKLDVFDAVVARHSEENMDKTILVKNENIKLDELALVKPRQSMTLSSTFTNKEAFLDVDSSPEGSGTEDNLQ

[3] = viability of PTEN-deleted HCT116 cells – cell-based, HCT116 PTEN knockout, dose response (AID 1047); format: functional;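 also: HCT116 colon tumor cells with PTEN knocked out; cells exposed to compound for 60 hours before readout; potency for loss of cell viability measured by luminescence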
[4] = viability of HCT116 lacking mutant beta-catenin – cell-based, human colon tumor, dose response (AID 1045); format: functional;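 also: HCT116 colon tumor cells with beta catenin knocked out; cells exposed to compound for 60 hours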
[5] = THP-1 cell cytotoxicity, dose response, cytotoxicity control for non-replicating M. tuberculosis project (AID 489025); format: functional
cells = format: functional
[6] = biological target: T3, DNA repair protein RAD52 homolog (Homo sapiens, UniProt P43351); format: functional, biochemical
T3 sequence (P43351 whole entry): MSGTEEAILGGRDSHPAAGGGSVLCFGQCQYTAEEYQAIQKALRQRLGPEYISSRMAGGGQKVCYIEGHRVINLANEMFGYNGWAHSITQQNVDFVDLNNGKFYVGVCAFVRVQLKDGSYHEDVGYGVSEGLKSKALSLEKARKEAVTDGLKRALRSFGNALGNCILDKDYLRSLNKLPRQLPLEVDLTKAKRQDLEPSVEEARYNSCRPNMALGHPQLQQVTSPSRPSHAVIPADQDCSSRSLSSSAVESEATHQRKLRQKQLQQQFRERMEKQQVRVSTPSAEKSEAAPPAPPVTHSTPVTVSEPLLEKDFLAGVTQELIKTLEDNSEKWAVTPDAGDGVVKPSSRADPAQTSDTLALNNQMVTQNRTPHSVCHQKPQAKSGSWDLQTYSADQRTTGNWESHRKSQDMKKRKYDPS

Nonstructural protein 1 = Nonstructural protein 1 (Influenza A virus, UniProt Q194T2); format: functional, Influenza A virus (A/California/07/2009(H1N1))
P388/ADR = assay: cells; format: functional; conditions: Mus musculus
SN12K1 = assay: cells; format: functional; conditions: Homo sapiens
P388 = assay: cells; format: functional; conditions: Mus musculus
[7] = biological target: T4, Adenosylmethionine-8-amino-7-oxononanoate aminotransferase (Mycobacterium tuberculosis, UniProt P9WQ81); assay: Mycobacterium tuberculosis BioA enzyme inhibitor Measured in Biochemical System Using Plate Reader - 2163-02_Inhibitor_Dose_CherryPick_Activity.; format: functional, Mycobacterium tuberculosis UT205
T4 sequence (P9WQ81 whole entry): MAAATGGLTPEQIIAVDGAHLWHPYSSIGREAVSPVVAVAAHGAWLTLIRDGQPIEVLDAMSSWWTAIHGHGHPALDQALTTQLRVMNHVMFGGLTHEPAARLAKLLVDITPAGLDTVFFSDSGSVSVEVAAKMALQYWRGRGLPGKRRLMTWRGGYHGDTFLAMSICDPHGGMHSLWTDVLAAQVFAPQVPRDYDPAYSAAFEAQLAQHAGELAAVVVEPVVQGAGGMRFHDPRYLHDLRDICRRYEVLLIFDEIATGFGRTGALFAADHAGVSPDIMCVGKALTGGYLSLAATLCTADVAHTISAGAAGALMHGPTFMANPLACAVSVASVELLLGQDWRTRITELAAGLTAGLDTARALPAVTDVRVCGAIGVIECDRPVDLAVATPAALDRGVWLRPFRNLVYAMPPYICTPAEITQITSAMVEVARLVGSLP

Genome polyprotein = Genome polyprotein (dengue virus type 2, UniProt P29990); assay: flavivirus cap methylation enzyme inhibition – biochemical, confirmation dose response, primary screen (AID 588689); format: functional
Chain of Genome polyprotein (P29990 2492-3391 limits assumed): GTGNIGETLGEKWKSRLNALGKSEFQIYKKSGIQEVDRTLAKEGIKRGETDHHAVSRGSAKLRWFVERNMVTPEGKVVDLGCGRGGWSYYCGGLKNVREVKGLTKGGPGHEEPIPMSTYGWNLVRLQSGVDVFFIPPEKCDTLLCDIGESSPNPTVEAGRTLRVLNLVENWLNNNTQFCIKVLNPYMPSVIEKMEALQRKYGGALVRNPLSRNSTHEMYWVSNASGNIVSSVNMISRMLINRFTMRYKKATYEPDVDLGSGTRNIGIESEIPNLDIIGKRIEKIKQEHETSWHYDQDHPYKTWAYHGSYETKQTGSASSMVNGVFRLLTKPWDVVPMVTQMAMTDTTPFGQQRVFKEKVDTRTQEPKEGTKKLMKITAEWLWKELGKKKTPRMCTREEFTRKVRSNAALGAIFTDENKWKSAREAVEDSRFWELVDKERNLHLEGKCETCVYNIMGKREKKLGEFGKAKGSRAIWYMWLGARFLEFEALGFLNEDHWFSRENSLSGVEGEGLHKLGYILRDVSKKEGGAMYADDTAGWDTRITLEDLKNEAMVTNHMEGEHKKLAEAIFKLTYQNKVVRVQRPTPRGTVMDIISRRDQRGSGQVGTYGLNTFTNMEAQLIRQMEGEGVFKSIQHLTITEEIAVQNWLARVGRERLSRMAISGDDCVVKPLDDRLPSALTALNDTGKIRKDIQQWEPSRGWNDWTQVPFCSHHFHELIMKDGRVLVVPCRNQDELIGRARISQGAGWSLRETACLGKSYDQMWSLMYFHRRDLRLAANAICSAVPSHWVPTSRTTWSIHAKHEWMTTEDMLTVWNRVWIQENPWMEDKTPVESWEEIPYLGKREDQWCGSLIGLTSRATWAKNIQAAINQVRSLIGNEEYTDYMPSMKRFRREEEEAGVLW

Chain of DNA dC->dU-editing enzyme APOBEC-3G (Q9HC16 whole entry): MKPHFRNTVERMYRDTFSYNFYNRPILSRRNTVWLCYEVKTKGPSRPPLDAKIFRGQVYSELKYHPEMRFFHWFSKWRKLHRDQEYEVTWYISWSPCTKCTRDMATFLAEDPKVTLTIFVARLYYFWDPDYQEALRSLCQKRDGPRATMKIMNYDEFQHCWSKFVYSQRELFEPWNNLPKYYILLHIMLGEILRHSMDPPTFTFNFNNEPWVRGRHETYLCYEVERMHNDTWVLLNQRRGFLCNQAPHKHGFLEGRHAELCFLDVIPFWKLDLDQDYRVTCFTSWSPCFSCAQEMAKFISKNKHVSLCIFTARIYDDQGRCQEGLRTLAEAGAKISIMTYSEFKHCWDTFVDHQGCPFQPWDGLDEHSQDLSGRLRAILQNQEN
Chain of Nonstructural protein 1 (Q194T2 whole entry): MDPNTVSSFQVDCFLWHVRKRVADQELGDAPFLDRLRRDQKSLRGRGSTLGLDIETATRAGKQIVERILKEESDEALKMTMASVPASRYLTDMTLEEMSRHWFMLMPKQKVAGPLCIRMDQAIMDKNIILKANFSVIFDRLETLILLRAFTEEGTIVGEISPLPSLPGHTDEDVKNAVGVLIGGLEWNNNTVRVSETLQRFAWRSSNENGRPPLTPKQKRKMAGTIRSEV

| SMILES | GI50 (P388/ADR) | GI50 (SN12K1) | GI50 (P388) | other results |
| --- | --- | --- | --- | --- |
| Cn1c(-c2cc(Br)ccc2O)n[nH]c1=S | – | – | – | EC50 (Streptokinase A): > 150 µM (not active); IC50 [1]: 8.33 µM (active) |
| CCCCn1c(SCn2nnc3ccccc3c2=O)nc2cc(S(N)(=O)=O)ccc21 | – | – | – | IC50 [2]: 15.8 µM (active) |
| O=C(CN1CCCCC1)N1CCCc2c1c(=O)oc1ccc(OCc3ccccc3)cc21 | – | – | – | EC50 [3]: 39.9 µM (active); EC50 [4]: 48.4 µM (active) |
| CN(C)CC/C=C1/c2ccc(F)cc2Sc2ccc(Cl)cc21 | – | – | – | CC50 [5]: 18.9 µM (active); IC50 (cells): 18.6 µM (active); AC50 [6]: 12.8 µM (active) |
| c1ccc(-c2cnnc(-c3ccccn3)n2)cc1 | – | – | – | IC50 (Nonstructural protein 1): 12.9 µM (active) |
| O=S(=O)(c1ccc(Br)cc1)c1nc(-c2ccccc2)oc1NCCN1CCOCC1 | – | – | – | IC50 (Nonstructural protein 1): > 100 µM (active) |
| COc1ccc2c(c1)OCCc1cn[nH]c1-2 | 34 µM (inactive) | 38.2 µM (inactive) | 32.5 µM (inactive) | – |
| COC(=O)/C=c1/sc2nc3ccccc3n2c1=O | – | – | – | IC50 [1]: 30.8 µM (active) |
| C/C(=C/C(=O)Nc1ccccc1)Nc1onc(C)c1C | – | > 100 µM (inactive) | > 100 µM (inactive) | – |
| COc1ccc(/C(Cl)=C(\C=O)c2ccc(OC)c(OC)c2)cc1OC | 10.5 µM (inactive) | 80.9 µM (inactive) | 35.3 µM (inactive) | – |
| CSc1nc2c(ncn2C2OC(CO)C(O)C(O)C2O)c(=O)[nH]1 (stereo unspecified) | > 10 µM (inactive) | > 100 µM (inactive) | > 100 µM (inactive) | – |
| O=C[C@@H](CO)O[C@H](C=O)n1cnc2c(=O)nc[nH]c21 | 69.2 µM (inactive) | 284 µM (inactive) | 76 µM (inactive) | – |
| C/C=C/c1ccc2c(c1)O[C@@H](CN(C)C(=O)Cc1cccnc1)[C@H](C)CN([C@H](C)CO)S2(=O)=O | – | – | – | AC50 [7]: 10.3 µM (active) |
| CN(C(=O)CSc1nc2ccccc2c(=O)n1-c1ccccc1Cl)C1CCS(=O)(=O)C1 (stereo unspecified) | – | – | – | AC50 [7]: 2.22 µM (active) |
| COc1cccc(N[C@@H]2c3cc4c(cc3C(c3cc(OC)c(O)c(OC)c3)[C@H]3C(=O)OCC32)OCO4)c1 (stereo partly specified) | 0.0635 µM (active) | 0.0615 µM (active) | < 0.01 µM (active) | – |
| C=CCOc1ccccc1/C=c1\sc2nc(=O)c(C)nn2c1=O | – | – | – | IC50 (Genome polyprotein): 12.1 µM (active) |
